{"source": "ChEMBL document CHEMBL6134853", "about": "“Design, Synthesis, and Biological Evaluation of Pyrrolo[1,2-a]quinoxalin-4(5H)-one Derivatives as Potent and Orally Available Noncovalent Bruton's Tyrosine Kinase (BTK) Inhibitors” (J Med Chem, 2025)", "key": {"[1]": {"target": "T1, Tyrosine-protein kinase BTK (Homo sapiens, UniProt Q06187)", "T1 sequence (Q06187 whole entry)": "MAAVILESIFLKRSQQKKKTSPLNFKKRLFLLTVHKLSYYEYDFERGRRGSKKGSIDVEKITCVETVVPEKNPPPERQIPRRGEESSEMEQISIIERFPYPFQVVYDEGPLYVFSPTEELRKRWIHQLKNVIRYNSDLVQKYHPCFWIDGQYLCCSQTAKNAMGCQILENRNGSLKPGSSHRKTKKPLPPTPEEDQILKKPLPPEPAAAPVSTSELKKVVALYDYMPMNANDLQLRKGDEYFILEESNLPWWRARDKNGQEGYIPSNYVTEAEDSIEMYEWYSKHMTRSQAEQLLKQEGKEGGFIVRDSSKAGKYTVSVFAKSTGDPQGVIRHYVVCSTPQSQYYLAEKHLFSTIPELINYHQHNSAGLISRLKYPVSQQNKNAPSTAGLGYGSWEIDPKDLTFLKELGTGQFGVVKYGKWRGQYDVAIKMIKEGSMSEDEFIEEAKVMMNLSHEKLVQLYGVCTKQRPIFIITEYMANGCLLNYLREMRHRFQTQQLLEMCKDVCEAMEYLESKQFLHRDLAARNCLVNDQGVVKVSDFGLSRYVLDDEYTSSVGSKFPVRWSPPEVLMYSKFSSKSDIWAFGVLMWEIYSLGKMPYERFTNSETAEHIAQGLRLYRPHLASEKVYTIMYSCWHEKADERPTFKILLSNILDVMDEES", "test": "Inhibition of BTK (unknown origin) by HTRF analysis"}, "U-937 [2]": {"system": "U-937", "test": "Antiproliferative activity against human U-937 cells expressing BTK assessed as inhibition of cell proliferation incubated for 48 hrs by CCK-8 assay", "assay_type": "functional, cell-based", "conditions": "U-937, 48 h"}, "Ramos": {"system": "Ramos", "test": "Antiproliferative activity against human Ramos cells expressing BTK assessed as inhibition of cell proliferation incubated for 48 hrs by CCK-8 assay", "assay_type": "functional, cell-based"}, "[3]": {"test": "Cmax in male Sprague-Dawley rat at 10 mg/kg, po measured up to 5 hrs by LC-MS/MS analysis", "assay_type": "ADME, organism-based", "conditions": "in vivo"}, "[4]": {"test": "AUC (0 to t) in male Sprague-Dawley rat at 10 mg/kg, po measured up to 24 hrs by LC-MS/MS analysis", "assay_type": "ADME, organism-based", "conditions": "in vivo"}, "[5]": {"target": "T1, Tyrosine-protein kinase BTK", "test": "Inhibition of BTK (unknown origin) at 100 nM relative to control"}, "[6]": {"target": "Phosphatidylinositol 4-phosphate 5-kinase type-1 alpha (Homo sapiens) (UniProt Q99755)", "sequence (Q99755 whole entry)": "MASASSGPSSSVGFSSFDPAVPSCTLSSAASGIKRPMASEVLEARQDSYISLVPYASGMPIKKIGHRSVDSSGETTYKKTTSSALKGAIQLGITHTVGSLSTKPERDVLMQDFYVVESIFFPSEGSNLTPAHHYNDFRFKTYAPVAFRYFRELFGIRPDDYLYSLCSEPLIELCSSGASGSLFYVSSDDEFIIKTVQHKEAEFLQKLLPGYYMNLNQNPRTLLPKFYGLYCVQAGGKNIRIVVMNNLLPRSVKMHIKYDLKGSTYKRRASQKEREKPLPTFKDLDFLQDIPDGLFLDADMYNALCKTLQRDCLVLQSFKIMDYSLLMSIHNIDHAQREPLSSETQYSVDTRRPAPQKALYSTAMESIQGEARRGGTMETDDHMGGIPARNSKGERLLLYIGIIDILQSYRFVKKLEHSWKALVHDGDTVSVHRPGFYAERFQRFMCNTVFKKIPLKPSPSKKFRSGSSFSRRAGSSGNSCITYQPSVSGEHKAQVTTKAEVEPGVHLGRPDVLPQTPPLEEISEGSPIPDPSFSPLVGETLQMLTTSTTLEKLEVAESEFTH", "test": "Inhibition of PIP5K1A (unknown origin) at 100 nM relative to control"}, "[7]": {"target": "T2, Serine/threonine-protein kinase RIO3 (Homo sapiens) (UniProt O14730)", "T2 sequence (whole entry)": "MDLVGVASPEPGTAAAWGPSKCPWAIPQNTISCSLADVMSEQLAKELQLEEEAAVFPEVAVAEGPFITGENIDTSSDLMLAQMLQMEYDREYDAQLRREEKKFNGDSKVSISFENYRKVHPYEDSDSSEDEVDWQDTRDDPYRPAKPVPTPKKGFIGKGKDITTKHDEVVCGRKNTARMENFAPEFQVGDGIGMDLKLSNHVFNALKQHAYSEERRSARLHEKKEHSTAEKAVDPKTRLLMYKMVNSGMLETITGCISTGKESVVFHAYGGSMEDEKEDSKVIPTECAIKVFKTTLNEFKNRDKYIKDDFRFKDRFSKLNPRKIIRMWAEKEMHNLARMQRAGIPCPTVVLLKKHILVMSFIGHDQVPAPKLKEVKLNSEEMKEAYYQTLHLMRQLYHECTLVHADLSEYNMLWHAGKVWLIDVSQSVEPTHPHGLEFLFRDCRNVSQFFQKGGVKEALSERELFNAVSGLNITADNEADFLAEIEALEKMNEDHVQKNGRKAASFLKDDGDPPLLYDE", "test": "Inhibition of RIOK3 (unknown origin) at 100 nM relative to control"}, "[8]": {"target": "T3, 1-phosphatidylinositol 4,5-bisphosphate phosphodiesterase gamma-2 (Homo sapiens) (UniProt P16885)", "T3 sequence (whole entry)": "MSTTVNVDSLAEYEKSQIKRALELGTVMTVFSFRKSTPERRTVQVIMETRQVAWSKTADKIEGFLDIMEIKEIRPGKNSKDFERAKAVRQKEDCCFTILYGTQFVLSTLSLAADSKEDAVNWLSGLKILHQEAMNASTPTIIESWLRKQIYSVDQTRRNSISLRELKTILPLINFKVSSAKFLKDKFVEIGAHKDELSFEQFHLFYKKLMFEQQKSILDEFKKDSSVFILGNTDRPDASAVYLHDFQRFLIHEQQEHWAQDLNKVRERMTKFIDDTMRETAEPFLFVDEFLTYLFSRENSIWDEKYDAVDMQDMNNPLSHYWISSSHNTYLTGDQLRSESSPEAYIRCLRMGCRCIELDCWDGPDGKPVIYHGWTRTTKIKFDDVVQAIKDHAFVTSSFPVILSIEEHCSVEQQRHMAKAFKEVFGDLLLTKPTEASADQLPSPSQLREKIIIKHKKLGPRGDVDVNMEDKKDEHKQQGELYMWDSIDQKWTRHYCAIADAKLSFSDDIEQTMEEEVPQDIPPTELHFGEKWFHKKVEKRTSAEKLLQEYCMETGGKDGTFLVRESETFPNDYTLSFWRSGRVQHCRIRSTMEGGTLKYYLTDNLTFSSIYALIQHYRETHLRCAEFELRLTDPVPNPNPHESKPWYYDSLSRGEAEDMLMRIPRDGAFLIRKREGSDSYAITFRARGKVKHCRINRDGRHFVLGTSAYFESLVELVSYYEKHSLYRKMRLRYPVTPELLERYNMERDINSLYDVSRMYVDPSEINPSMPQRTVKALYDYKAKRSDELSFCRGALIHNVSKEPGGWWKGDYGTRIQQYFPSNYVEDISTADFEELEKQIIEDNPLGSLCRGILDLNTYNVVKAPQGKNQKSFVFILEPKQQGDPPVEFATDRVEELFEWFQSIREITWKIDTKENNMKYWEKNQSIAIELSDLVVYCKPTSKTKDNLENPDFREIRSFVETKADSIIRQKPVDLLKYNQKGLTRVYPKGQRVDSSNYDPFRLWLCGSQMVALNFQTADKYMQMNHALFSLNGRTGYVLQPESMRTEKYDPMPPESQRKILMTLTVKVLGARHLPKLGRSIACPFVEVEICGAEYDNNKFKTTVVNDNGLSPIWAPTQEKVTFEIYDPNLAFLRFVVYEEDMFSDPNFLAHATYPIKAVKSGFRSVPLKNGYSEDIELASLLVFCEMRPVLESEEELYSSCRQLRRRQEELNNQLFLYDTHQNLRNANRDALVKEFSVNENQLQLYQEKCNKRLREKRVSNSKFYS", "test": "Inhibition of PLCgamma2 phosphorylation at Y1217 residue in anti-IgM induced human Ramos cells preincubated with compound for 4 hrs followed by anti-IgM induction and measured after 15 mins by Western blot analysis", "assay_type": "cell-based", "conditions": "dose <= 1.0 µM, time […]"}, "U-937 [9]": {"system": "U-937", "test": "Induction of cell cycle arrest in human U-937 cells assessed as accumulation of cells at S-phase incubated for 2 days by PI staining based flow cytometry analysis", "assay_type": "functional", "conditions": "dose 1-10 µM, time 2.0 day"}, "U-937 [10]": {"system": "U-937", "test": "Antitumor activity against human U-937 cells xenografted in BALB/c mouse assessed as tumor growth inhibition at 50 mg/kg, po administered once a day for 14 days", "assay_type": "functional", "conditions": "U-937, 336 h, time 14 day, read-out: TGI"}, "U-937 [11]": {"system": "U-937", "test": "Antitumor activity against human U-937 cells xenografted in BALB/c mouse assessed as tumor growth inhibition at 100 mg/kg, po administered once a day for 14 days", "assay_type": "functional", "conditions": "U-937, 336 h, time 14 day, read-out: TGI"}, "[12]": {"test": "Toxicity in BALB/c mouse xenografted with human U-937 cells assessed as parenchymal injury in heart at 50 to 100 mg/kg, po administered once a day for 14 days by H and E staining based analysis", "assay_type": "organism-based", "conditions": "in vivo, 336 h, dose 50-100 mg/kg, time 14 day"}, "[13]": {"test": "Toxicity in BALB/c mouse xenografted with human U-937 cells assessed as parenchymal injury in kidney at 50 to 100 mg/kg, po administered once a day for 14 days by H and E staining based analysis", "assay_type": "organism-based", "conditions": "in vivo, 336 h, dose 50-100 mg/kg, time 14 day"}, "[14]": {"test": "Toxicity in BALB/c mouse xenografted with human U-937 cells assessed as inflammatory infiltration in spleen at 50 to 100 mg/kg, po administered once a day for 14 days by H and E staining based analysis", "assay_type": "organism-based", "conditions": "in vivo, 336 h, dose 50-100 mg/kg, time 14 day"}, "[15]": {"test": "Toxicity in BALB/c mouse xenografted with human U-937 cells assessed as inflammatory infiltration in lung at 50 to 100 mg/kg, po administered once a day for 14 days by H and E staining based analysis", "assay_type": "organism-based", "conditions": "in vivo, 336 h, dose 50-100 mg/kg, time 14 day"}}, "note": "Active and inactive are the calls of the source. No cut-off for these calls is given here.", "data": [{"smiles": "CC(C)(O)c1ccc2c(c1)[nH]c(=O)c1ccc(-c3cccc(-n4c(=O)[nH]c5c(F)cccc5c4=O)c3F)n12", "values": [{"measurement": "IC50", "setting": "[1]", "value": 0.0216, "unit": "µM"}, {"measurement": "IC50", "setting": "U-937 [2]", "value": 7.9, "unit": "µM"}, {"measurement": "IC50", "setting": "Ramos", "value": 8, "unit": "µM"}, {"measurement": "Cmax", "setting": "[3]", "value": 62.4, "unit": "ng/mL"}, {"measurement": "AUC(0-t) at 24 h", "setting": "[4]", "value": 161, "unit": "ng·h/mL"}, {"measurement": "inhibition", "setting": "[5]", "value": "Active"}, {"measurement": "inhibition", "setting": "[6]", "value": "Active"}, {"measurement": "inhibition", "setting": "[7]", "value": "Active"}, {"measurement": "inhibition", "setting": "[8]", "value": "Dose-dependent-effect"}, {"measurement": "Activity", "setting": "U-937 [9]", "value": "Dose-dependent-effect"}, {"measurement": "inhibition in vivo at 50 mg/kg", "setting": "U-937 [10]", "value": 64.4, "unit": "%"}, {"measurement": "inhibition in vivo at 100 mg/kg", "setting": "U-937 [11]", "value": 74.9, "unit": "%"}, {"measurement": "Activity", "setting": "[12]", "value": "Non-toxic"}, {"measurement": "Activity", "setting": "[13]", "value": "Non-toxic"}, {"measurement": "Activity", "setting": "[14]", "value": "Non-toxic"}, {"measurement": "Activity", "setting": "[15]", "value": "Non-toxic"}]}]}
